This assay has as its target T1, PI3Kα (Homo sapiens, UniProt P42336).
T1 construct: gene PIK3CA
Description: PI3-Kinase Activity ELISA (PIP3 production) with purified PI3Kα; supported by CETSA and DARTS in HCT116 and SW480 cells/lysates. The class given is biochemical.

Among the data in PMC10761647, “β-carboline derivative Z86 attenuates colorectal cancer cell proliferation and migration by directly targeting PI3K” (Natural Products and Bioprospecting, 2024) are IC50 values, retold here.

T1 sequence (P42336 whole entry): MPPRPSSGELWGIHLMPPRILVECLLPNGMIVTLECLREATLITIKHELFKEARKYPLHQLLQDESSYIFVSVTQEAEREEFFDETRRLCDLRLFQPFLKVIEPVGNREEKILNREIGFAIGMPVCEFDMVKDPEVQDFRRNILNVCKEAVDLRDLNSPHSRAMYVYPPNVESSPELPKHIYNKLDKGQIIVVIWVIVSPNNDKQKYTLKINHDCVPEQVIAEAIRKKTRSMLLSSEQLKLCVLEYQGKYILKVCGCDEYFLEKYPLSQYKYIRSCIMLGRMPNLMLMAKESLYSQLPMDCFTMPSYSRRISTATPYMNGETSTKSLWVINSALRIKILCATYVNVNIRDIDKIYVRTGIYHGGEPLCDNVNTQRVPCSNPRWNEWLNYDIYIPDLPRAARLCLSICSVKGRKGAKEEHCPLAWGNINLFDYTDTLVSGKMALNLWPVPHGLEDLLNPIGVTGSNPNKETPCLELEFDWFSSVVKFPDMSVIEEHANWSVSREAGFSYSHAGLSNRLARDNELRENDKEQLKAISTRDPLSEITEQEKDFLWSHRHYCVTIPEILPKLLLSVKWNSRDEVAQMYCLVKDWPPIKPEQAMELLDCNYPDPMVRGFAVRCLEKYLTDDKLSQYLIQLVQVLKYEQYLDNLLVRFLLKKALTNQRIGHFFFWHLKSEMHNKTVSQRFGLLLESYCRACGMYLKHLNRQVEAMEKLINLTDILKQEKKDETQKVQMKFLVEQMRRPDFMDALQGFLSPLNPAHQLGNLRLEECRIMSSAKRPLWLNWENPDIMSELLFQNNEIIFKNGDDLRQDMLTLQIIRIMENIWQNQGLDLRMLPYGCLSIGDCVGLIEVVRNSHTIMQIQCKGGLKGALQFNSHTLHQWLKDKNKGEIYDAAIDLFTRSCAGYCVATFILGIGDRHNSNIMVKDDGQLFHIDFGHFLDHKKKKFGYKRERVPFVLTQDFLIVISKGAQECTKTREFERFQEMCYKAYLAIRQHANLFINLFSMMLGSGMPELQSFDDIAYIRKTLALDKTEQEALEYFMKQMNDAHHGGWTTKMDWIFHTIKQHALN
T1 sequence (P27986 2-724 partner): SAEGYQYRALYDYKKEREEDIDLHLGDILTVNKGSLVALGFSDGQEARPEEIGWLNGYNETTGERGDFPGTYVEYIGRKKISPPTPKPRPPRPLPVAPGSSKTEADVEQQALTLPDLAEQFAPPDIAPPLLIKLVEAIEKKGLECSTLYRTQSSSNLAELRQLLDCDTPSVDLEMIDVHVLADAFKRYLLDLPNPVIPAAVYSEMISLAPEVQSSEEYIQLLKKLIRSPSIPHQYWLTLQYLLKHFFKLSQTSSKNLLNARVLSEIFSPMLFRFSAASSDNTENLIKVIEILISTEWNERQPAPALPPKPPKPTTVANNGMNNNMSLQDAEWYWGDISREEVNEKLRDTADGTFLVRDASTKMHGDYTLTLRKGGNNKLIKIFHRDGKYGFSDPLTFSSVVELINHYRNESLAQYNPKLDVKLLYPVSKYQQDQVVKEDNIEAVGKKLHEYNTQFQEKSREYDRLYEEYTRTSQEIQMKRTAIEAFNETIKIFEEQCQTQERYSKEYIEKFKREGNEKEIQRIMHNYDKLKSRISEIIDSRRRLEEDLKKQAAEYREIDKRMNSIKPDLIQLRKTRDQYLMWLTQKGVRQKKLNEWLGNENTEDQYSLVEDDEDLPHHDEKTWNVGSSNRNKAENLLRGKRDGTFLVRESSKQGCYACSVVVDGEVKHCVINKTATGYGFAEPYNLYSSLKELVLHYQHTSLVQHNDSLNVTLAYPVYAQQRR

In turn, `CCn1c2ccccc2c2cc(C(=O)OC(C)C)nc(-c3cccc4ccccc34)c21` [Z86, isopropyl 9-ethyl-1-(naphthalen-1-yl)-9 H-pyrido[3,4-b] indole-3-carboxylate] had an IC50 of 4.28 µM.
